From patent publication US20100069443A1, “COMPOUND WITH BENZAMIDE SKELETON HAVING CYCLOOXYGENASE-1 (COX-1)-SELECTIVE INHIBITORY ACTIVITY” (National University Corporation Okayama University, priority 2006, published 2010)
Like-named read-outs stand apart in the source and are kept apart here.

What was measured:
[1] = test system: carrageenin-induced edema in footpads of hind paws; test: Carrageenin edema test (antiinflammatory testing); assay type: in vivo, rat; settings: 30 mg/kg orally; 3 hours after administration of 1% carrageenin
Protocol: Antiinflammatory testing was carried out via a rat-based carrageenin edema test. Compounds were orally administered in amounts of 30 mg/kg to groups each consisting of 5 to 8 […], and an edema-inducing substance (a 1% carrageenin solution) was administered hypodermically to footpads of hind paws 1 hour later (0.1 ml/mouse). Edema thickness in the footpads of hind paws was measured 1, 2, and 3 hours thereafter.

gastric ulcer = test: Gastric ulcer formation; assay type: in vivo; settings: 30 mg/kg orally, mice, 5 hours later
Protocol: Compound 1 was orally administered in amounts of 30 mg/kg to groups each consisting of 3 to 5 mice, mice were sacrificed with the use of ether 5 hours later, and the stomachs were extracted. The extracted stomachs were opened, each entire stomach was photographed using a stereoscopic microscope, and the lengths of the gastric ulcers were determined.

[2] = test system: acetic acid-induced writhing responses; test: Acetic acid writhing test (analgesic testing); assay type: in vivo; settings: mice; for Number of writhing responses: counted for 10 minutes, average; for Analgesic effect, suppression of the number of writhing responses (in words): oral administration
Protocol: Analgesic testing was carried out via common mice-based acetic acid writhing test. Compounds were administered orally in amounts of 30 mg/kg to groups each consisting of 10 or 11 mice, and a substance that applies pain stimuli, i.e., a 0.7% acetic acid solution, was intraperitoneally administered 30 minutes thereafter (0.1 ml/10 g). The counting of mice-specific writhing responses was initiated 10 minutes after the administration of the acetic acid solution, and the counting was continued for 10 minutes. This test utilizes the fact that a distinct symptom of agony, that is a writhing response, occurs upon administration of a stimulatory substance, such as an acetic acid solution, to a mouse. […] When compound 1 was administered in amounts of 30 mg/kg, however, the number of writhing responses was 5 on average. When compound 1 was administered in amounts of 10 mg/kg, the number of writhing responses was 10 on average. When compound 14 was administered in amounts of 30 mg/kg, the number of writhing responses was 6 on average.

cyclooxygenase-1 (COX-1) = molecular target: T1, cyclooxygenase-1 (COX-1) (Ovis aries, UniProt P05979); test: Cayman Cyclooxygenase Inhibitor Screening Assay Kit (760111), COX-1; assay type: biochemical; settings: for inhibition at 100 µM: read-out: Inhibitory activity of 100 μM compound (%) COX-1
T1 construct: purchased Cayman 760111
T1 sequence (P05979 25-600): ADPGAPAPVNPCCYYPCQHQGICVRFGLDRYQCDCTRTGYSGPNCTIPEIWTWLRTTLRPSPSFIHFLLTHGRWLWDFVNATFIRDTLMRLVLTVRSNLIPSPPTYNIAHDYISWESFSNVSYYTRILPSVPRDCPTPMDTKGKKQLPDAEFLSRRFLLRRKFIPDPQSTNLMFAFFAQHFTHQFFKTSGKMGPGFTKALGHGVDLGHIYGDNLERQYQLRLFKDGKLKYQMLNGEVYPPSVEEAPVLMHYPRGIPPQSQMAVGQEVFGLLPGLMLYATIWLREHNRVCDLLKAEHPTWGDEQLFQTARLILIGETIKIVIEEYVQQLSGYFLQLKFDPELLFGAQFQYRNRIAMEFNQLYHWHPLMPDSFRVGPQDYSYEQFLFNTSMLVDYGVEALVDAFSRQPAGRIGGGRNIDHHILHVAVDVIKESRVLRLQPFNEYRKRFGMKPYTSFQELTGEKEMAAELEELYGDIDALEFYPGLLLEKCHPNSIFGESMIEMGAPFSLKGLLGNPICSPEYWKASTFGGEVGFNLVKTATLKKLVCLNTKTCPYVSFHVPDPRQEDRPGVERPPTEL

cyclooxygenase 2 (COX-2) = molecular target: T2, cyclooxygenase 2 (COX-2) (Ovis aries, UniProt P79208); test: Cayman Cyclooxygenase Inhibitor Screening Assay Kit (760111), COX-2; assay type: biochemical; settings: for inhibition at 100 µM: read-out: Inhibitory activity of 100 μM compound (%) COX-2
T2 construct: purchased Cayman 760111
T2 sequence (P79208 17-603): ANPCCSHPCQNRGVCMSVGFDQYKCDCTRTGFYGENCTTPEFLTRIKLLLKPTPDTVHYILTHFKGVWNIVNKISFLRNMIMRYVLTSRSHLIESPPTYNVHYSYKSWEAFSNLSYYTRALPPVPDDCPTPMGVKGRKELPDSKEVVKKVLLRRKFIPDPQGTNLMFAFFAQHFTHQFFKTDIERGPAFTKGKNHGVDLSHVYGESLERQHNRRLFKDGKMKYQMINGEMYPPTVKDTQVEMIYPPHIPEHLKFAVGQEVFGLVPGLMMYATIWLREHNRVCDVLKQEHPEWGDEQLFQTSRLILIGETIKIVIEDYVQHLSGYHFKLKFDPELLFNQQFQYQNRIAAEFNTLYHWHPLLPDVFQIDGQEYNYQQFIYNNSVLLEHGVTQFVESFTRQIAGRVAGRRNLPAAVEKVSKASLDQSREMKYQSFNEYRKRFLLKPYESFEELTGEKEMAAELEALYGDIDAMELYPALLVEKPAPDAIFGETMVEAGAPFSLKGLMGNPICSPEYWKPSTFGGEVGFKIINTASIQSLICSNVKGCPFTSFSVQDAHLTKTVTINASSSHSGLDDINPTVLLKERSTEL

[3] = 10 mg/kg orally, 0.7% acetic acid i.p.
[4] = 30 mg/kg orally, 0.7% acetic acid i.p. 30 minutes later

Structure (SMILES) | Inhibitory activity against edema (%) [1] | Gastric ulcer formation (in words) (gastric ulcer) | Total length of gastric ulcer (mm) (gastric ulcer) | Number of writhing responses [2, 3] | Number of writhing responses [2, 4] | IC50 (cyclooxygenase-1 (COX-1)) | inhibition at 100 µM (cyclooxygenase-1 (COX-1)) | IC50 (cyclooxygenase 2 (COX-2)) | inhibition at 100 µM (cyclooxygenase 2 (COX-2)) | Death of mice (1 g/kg intraperitoneally, 3 mice, observed for 10 days) | Analgesic effect, suppression of the number of writhing responses (in words) [2] | Death of mice (300 mg/kg intraperitoneally, 5 mice, observed for 14 days)
CC(=O)Oc1ccccc1C(=O)O [Aspirin, aspirin, reference compound] | 16% | significant gastric ulcers | 1.61 mm | 17 | 15 |  |  |  |  |  |  | 
Nc1ccc(NC(=O)c2ccc(C(F)(F)F)cc2)nc1 [Compound 1] | 31% | not observed | 0.09 mm | 10 | 5 | 1 µM | 98% | > 100 µM | 24% | did not die | significantly suppresses | 
Nc1ccc(C(=O)Nc2ccc(C(F)(F)F)cn2)cc1 [Compound 14] |  | not observed | 0.01 mm |  | 6 | 30 µM | 65% | > 100 µM | 15% |  | significantly suppresses | did not die
